According to US20240285683A1, “Compositions And Methods For Enhancing Immunotherapy” (The Trustees of Princeton University, priority 2017, published 2024):

Test system: Naïve CD8+ T cells
Excerpt: Naïve CD8+ T cells were isolated from mouse spleen. Cells were activated at a cell density of 10^6 cells/mL using plate-bound αCD3/αCD28+100 U/mL TL2 in RPMI containing 10% FBS.

O=CO [formate]
cell size at day 1 post activation (1 mM formate in media, from 9.5 μm without formate): 10.2 μm
extent of cells showing cell surface activation markers (CD25+, CD69+) (1 mM formate, from 78% without formate): 88%
reduction of NADH concentration (formate, p<0.005): 1.8 fold
dead cells (growing CD8+ T cells, from 10% without formate): 5%
